Data reported in patent publication US20250129070A1, “BIFUNCTIONAL ANDROGEN RECEPTOR COMPOUNDS” (priority 2023, published 2025).

Experiments:
AR / CBP ternary complex = assay: Ternary complex formation assay (sandwich ELISA, AR capture / CBP detection) in VCaP cell lysates; type: cell-based; details: 1.5 hours treatment, sandwich ELISA (AR capture, CBP or p300 detection)
Summary of the method: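 Anti-AR (AR 441)-coated plates capture AR from lysates of VCaP cells grown ≥3 days at 50K/well in 5% charcoal-stripped FBS, dosed with bifunctional for 1.5 h and lysed 30 min at 4 °C. Co-captured CBP/p300 is probed with rabbit mAb and HRP anti-rabbit, then QuantaRed fluorescence (570/585) is read at 0, 5 and 15 min.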

VCaP cells = assay: VCaP growth inhibition assay; type: cell-based; details: 30 pM R1881, 9 days, CTG
Summary of the method: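 Growth read by CTG luminescence after 9-day exposure to compound (final 100 nM–10 fM, 1:5 steps) plus 30 pM R1881, in phenol red-free DMEM with 5% CSS. Cells pre-incubated 72 h before dosing; IC50 by nonlinear 4-parameter regression.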

| SMILES | EC50 (AR / CBP ternary complex) [nM] | IC50 (VCaP cells) [nM] |
| --- | --- | --- |
| CC(=O)N1CCc2c(c(N3CCCc4cc(-c5cnn(C)c5)c(C(F)F)cc43)nn2C2CCC3(CC2)CCN(CC2CN(c4ccc(C(=O)NC5C(C)(C)C(Oc6ccc(C#N)c(Cl)c6)C5(C)C)nn4)C2)CC3)C1 (stereo not shown) [Compound 209, 6-[3-[[9-[5-acetyl-3-[7-(difluoromethyl)-6-(1-methylpyrazol-4-yl)-3,4-dihydro-2H-quinolin-1-yl]-6,7-dihydro-4H-pyrazolo[4,3-c]pyridin-1-yl]-3-azaspiro[5.5]undecan-3-yl]methyl]azetidin-1-yl]-N-[3-(3-chloro-4-cyano-phenoxy)-2,2,4,4-tetramethyl-cyclobutyl]pyridazine-3-carboxamide] | 10 to 100 | ≤ 0.1 |
| CC(=O)N1CCc2c(c(N3CCCc4cc(-c5cnn(C)c5)c(C(F)F)cc43)nn2C2CCC(C3CCC4(CC3)CN(c3ncc(C(=O)NC5C(C)(C)C(Oc6ccc(C#N)c(Cl)c6)C5(C)C)cn3)C4)CC2)C1 (stereo not shown) [Compound 379, 2-[7-[4-[5-acetyl-3-[7-(difluoromethyl)-6-(1-methylpyrazol-4-yl)-3,4-dihydro-2H-quinolin-1-yl]-6,7-dihydro-4H-pyrazolo[4,3-c]pyridin-1-yl]cyclohexyl]-2-azaspiro[3.5]nonan-2-yl]-N-[3-(3-chloro-4-cyano-phenoxy)-2,2,4,4-tetramethyl-cyclobutyl]pyrimidine-5-carboxamide] | 1 to 10 | 1 to 100 |
| CC(=O)N1CCc2c(c(Nc3ccc(-c4cnn(C)c4)cc3F)nn2C2CN(CC3CCN(c4ncc(C(=O)NC5C(C)(C)C(Oc6ccc(C#N)c(Cl)c6)C5(C)C)cn4)CC3)C2)C1 (stereo not shown) [Compound 4, 2-[4-[[3-[5-acetyl-3-[2-fluoro-4-(1-methylpyrazol-4-yl)anilino]-6,7-dihydro-4H-pyrazolo[4,3-c]pyridin-1-yl]azetidin-1-yl]methyl]-1-piperidyl]-N-[3-(3-chloro-4-cyano-phenoxy)-2,2,4,4-tetramethyl-cyclobutyl]pyrimidine-5-carboxamide] | > 100 | > 100 |
| C[C@@H]1CC(=O)Nc2cccc(-c3ccc4c(c3)c(-c3cnn(C)c3)nn4CCCOc3ncc(C(=O)NC4C(C)(C)C(Oc5ccc(C#N)c(Cl)c5)C4(C)C)cn3)c2N1 (stereo partly drawn) [Compound 49, N-[3-(3-chloro-4-cyano-phenoxy)-2,2,4,4-tetramethyl-cyclobutyl]-2-[3-[5-[(4R)-4-methyl-2-oxo-1,3,4,5-tetrahydro-1,5-benzodiazepin-6-yl]-3-(1-methylpyrazol-4-yl)indazol-1-yl]propoxy]pyrimidine-5-carboxamide] | > 100 | 1 to 100 |

Second part, the molecule after the results:

| EC50 (AR / CBP ternary complex) [nM] | IC50 (VCaP cells) [nM] | SMILES |
| --- | --- | --- |
| < 1 | ≤ 0.1 | CC(=O)N1CCc2c(c(N3CCCc4cc(-c5cnn(C)c5)c(C(F)F)cc43)nn2C2CCC3(CC2)CN(C2CCN(c4ncc(C(=O)NC5C(C)(C)C(Oc6ccc(C#N)c(Cl)c6)C5(C)C)cn4)CC2)C3)C1 (stereo not shown) [Compound 371, 2-[4-[7-[5-acetyl-3-[7-(difluoromethyl)-6-(1-methylpyrazol-4-yl)-3,4-dihydro-2H-quinolin-1-yl]-6,7-dihydro-4H-pyrazolo[4,3-c]pyridin-1-yl]-2-azaspiro[3.5]nonan-2-yl]-1-piperidyl]-N-[3-(3-chloro-4-cyano-phenoxy)-2,2,4,4-tetramethyl-cyclobutyl]pyrimidine-5-carboxamide] |
| < 1 | 0.1 to 1 | CC(=O)N1CCc2c(c(N3CCCc4cc(-c5cnn(C)c5)c(C(F)(F)F)cc43)nn2C2CCN(CC3CCN(c4ncc(C(=O)NC5C(C)(C)C(Oc6ccc(C#N)c(Cl)c6)C5(C)C)cn4)CC3)CC2)C1 (stereo not shown) [Compound 27, 2-[4-[[4-[5-acetyl-3-[6-(1-methylpyrazol-4-yl)-7-(trifluoromethyl)-3,4-dihydro-2H-quinolin-1-yl]-6,7-dihydro-4H-pyrazolo[4,3-c]pyridin-1-yl]-1-piperidyl]methyl]-1-piperidyl]-N-[3-(3-chloro-4-cyano-phenoxy)-2,2,4,4-tetramethyl-cyclobutyl]pyrimidine-5-carboxamide] |
| < 1 | ≤ 0.1 | CC(=O)N1CCc2c(c(N3CCCc4cc(-c5cnn(C)c5)c(C(F)F)cc43)nn2C2CCN(C3CCC4(CC3)CN(c3ncc(C(=O)NC5C(C)(C)C(Oc6ccc(C#N)c(Cl)c6)C5(C)C)cn3)C4)CC2)C1 (stereo not shown) [Compound 274, 2-[7-[4-[5-acetyl-3-[7-(difluoromethyl)-6-(1-methylpyrazol-4-yl)-3,4-dihydro-2H-quinolin-1-yl]-6,7-dihydro-4H-pyrazolo[4,3-c]pyridin-1-yl]-1-piperidyl]-2-azaspiro[3.5]nonan-2-yl]-N-[3-(3-chloro-4-cyano-phenoxy)-2,2,4,4-tetramethyl-cyclobutyl]pyrimidine-5-carboxamide] |
| < 1 | ≤ 0.1 | COc1cc(OC2C(C)(C)C(NC(=O)c3ccc(OC4CC5(CCC(N6CCC(n7nc(N8CCCc9cc(-c%10cnn(C)c%10)c(C(F)F)cc98)c8c7CCN(C(C)=O)C8)CC6)CC5)C4)cc3)C2(C)C)ccc1C#N (stereo not shown) [Compound 384, 4-[7-[4-[5-acetyl-3-[7-(difluoromethyl)-6-(1-methylpyrazol-4-yl)-3,4-dihydro-2H-quinolin-1-yl]-6,7-dihydro-4H-pyrazolo[4,3-c]pyridin-1-yl]-1-piperidyl]spiro[3.5]nonan-2-yl] oxy-N-[3-(4-cyano-3-methoxy-phenoxy)-2,2,4,4-tetramethyl-cyclobutyl]benzamide] |
| < 1 | ≤ 0.1 | COc1cc(OC2C(C)(C)C(NC(=O)c3ccc(N4CCC(OC5CCC(n6nc(N7CCCc8cc(-c9cnn(C)c9)c(C(F)F)cc87)c7c6CCN(C(C)=O)C7)CC5)CC4)cc3)C2(C)C)ccc1C#N (stereo not shown) [Compound 308, 4-[4-[4-[5-acetyl-3-[7-(difluoromethyl)-6-(1-methylpyrazol-4-yl)-3,4-dihydro-2H-quinolin-1-yl]-6,7-dihydro-4H-pyrazolo[4,3-c]pyridin-1-yl]cyclohexoxy]-1-piperidyl]-N-[3-(4-cyano-3-methoxy-phenoxy)-2,2,4,4-tetramethyl-cyclobutyl]benzamide] |
| < 1 | 0.1 to 1 | COc1cc(OC2C(C)(C)C(NC(=O)c3ccc(N4CCC(C5CN(c6ccc(-c7cc8cccc(-c9nn(C%10CCOCC%10)c%10c9CN(C(C)=O)CC%10)c8cn7)cn6)C5)CC4)cc3)C2(C)C)ccc1C#N (stereo not shown) [Compound 268, 4-[4-[1-[5-[8-(5-acetyl-1-tetrahydropyran-4-yl-6,7-dihydro-4H-pyrazolo[4,3-c]pyridin-3-yl)-3-isoquinolyl]-2-pyridyl]azetidin-3-yl]-1-piperidyl]-N-[3-(4-cyano-3-methoxy-phenoxy)-2,2,4,4-tetramethyl-cyclobutyl]benzamide] |
| < 1 | 0.1 to 1 | CC(=O)N1CCc2c(c(N3CCCc4cc(-c5cnn(C)c5)c(C(F)F)cc43)nn2C2CCN(CCOC3CCN(c4ncc(C(=O)NC5C(C)(C)C(Oc6ccc(C#N)c(Cl)c6)C5(C)C)cn4)CC3)CC2)C1 (stereo not shown) [Compound 170, 2-[4-[2-[4-[5-acetyl-3-[7-(difluoromethyl)-6-(1-methylpyrazol-4-yl)-3,4-dihydro-2H-quinolin-1-yl]-6,7-dihydro-4H-pyrazolo[4,3-c]pyridin-1-yl]-1-piperidyl]ethoxy]-1-piperidyl]-N-[3-(3-chloro-4-cyano-phenoxy)-2,2,4,4-tetramethyl-cyclobutyl]pyrimidine-5-carboxamide] |
